# In patent US4948813A, “Benzylketone phospholipase A2 inhibitors” (E. I. Du Pont de Nemours and Company, priority 1989, dated 1990):
# Structures can show the parent of a compound that is named as a salt.
# System: inflammation induced by tetradecanoyl phorbol acetate (TPA)
# Experiment: TPA Inflammation Inhibition Test
# Type: in vivo, mice
# Conditions: mouse ear edema, topical, 100 mg/ear, four hours
# Protocol: The TPA model mimics many of the inflammatory change which occur in human skin diseases such as psoriasis, since elevated levels of inflammatory arachidonic acid metabolites are found and an influx of polymorphonuclear leukocytes is observed. The test procedure used to evaluate the compounds of Formula (I) is as follows: the test compound (100 mg/ear) is applied to both ears of mice in an appropriate vehicle, such as acetone, and then the inflammatory stimulus (TPA) is applied to the right ear. Four hours later, the edema is measured by removing standard size discs from the ears using a biopsy punch. A control group of animals receives TPA in vehicle applied to the right ear, and vehicle alone to the left ear.
row,Structure (SMILES),% Inhibition of Control Swelling [%]
1,"COc1ccc(CNCCC(=O)c2ccc(F)cc2)c2ccccc12 [Example 7, 1-(4-Fluorophenyl)-3-[(4-methoxy-1-naphthaIenyl)-methylamino]-1-propanone Hydrochloride]",21
2,"CC(C)c1ccc2c(c1)CCC1C(C)(CNCCC(=O)c3ccccc3)CCCC21C (stereo not shown) [Example 21, 1-Phenyl-3-([4a-dimethyl-7-(1-methylethyl)-1,2,3,4,4a,9,10,10aoctahydro-1-phenanthren-1-yl]-methylamino)-1-propanone 4-Methylbenzenesulfonate]",31
3,"CCCCCCC(C)OCCCC(=O)c1ccc(F)cc1 (stereo not drawn) [Example 37, 1-(4-Fluorophenyl)-4-(d-1-methylheptyloxy)-1-butanone]",20
4,"CC(C)c1ccc2c(c1)CCC1C(C)(CNCCC(=O)c3ccc(F)cc3)CCCC21C.Cl (stereo not shown) [Example 52, 3-([1,4a-Dimethyl-1,2,3,4,4a,9,10,10a-octahydro-7-(1-methylethyl)-1-phenanthrenyl]methylamino)-1-(4-fluorophenyl)-1-propanone Hydrochloride]",40
